Laboratory results from US8431596B2 (Cancer Research Technology Limited, priority 2007, dated 2013).
pIC50: −log10 of the molar value.

Target: T1, AXL (human catalytic domain) (Homo sapiens, UniProt P30530)
T1 construct: purchased Upstate Ltd. 14-512
T1 sequence (P30530 473-894): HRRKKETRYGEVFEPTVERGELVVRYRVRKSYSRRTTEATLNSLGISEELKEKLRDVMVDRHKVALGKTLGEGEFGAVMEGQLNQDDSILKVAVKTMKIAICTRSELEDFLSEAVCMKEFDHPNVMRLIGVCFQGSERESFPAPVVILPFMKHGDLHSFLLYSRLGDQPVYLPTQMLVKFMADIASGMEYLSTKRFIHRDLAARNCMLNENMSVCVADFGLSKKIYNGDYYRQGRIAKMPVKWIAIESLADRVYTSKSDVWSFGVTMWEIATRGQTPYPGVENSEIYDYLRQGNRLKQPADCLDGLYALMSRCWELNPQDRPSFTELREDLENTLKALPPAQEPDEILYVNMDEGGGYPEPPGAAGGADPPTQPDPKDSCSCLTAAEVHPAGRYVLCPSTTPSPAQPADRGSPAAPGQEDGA
Assay: AXL (human catalytic domain) Enzyme Activity Assay (IMAP fluorescence polarisation)
Format: biochemical
Conditions: further data set (WW-001 through WW-169, XX-001 through XX-469, YY-001 through YY-016, ZZ-001 through ZZ-003); 150 μM ATP
Method in brief: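 Recombinant human AXL isoform 1 (aa473-894; final 15 nM) phosphorylated 100 nM fluorescein-CSK-tide with 150 μM ATP (KM) in HEPES pH 7.0/MgCl2/DTT buffer for 60 min at room temperature. IMAP fluorescence polarisation read after overnight binding; IC50 from 10-point 4-parameter logistic fits.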

Row | SMILES | pIC50
1 | CCN(CC)CCC(=O)Nc1cccc(Nc2nc3cccc(-c4ccc5c(c4)OCCO5)n3n2)c1 [XX-124] | 6.00 to 7.00
2 | O=C(CCN1CCCCC1)Nc1cccc(Nc2nc3cccc(-c4ccc5c(c4)OCCO5)n3n2)c1 [XX-125] | 6.00 to 7.00
3 | CN(C)CC(C)(C)Oc1ccc(Nc2nc3cccc(-c4ccc5c(c4)OCCO5)n3n2)cc1 [XX-126] | 6.00 to 7.00
4 | CCN(CC)CCNc1cccc(Nc2nc3cccc(-c4ccc5c(c4)OCCO5)n3n2)c1 [XX-128] | 6.00 to 7.00
5 | c1cc(-c2ccc3c(c2)OCCO3)n2nc(Nc3ccc(NCCCN4CCCCC4)cc3)nc2c1 [XX-129] | 6.00 to 7.00
6 | Fc1ccc(Nc2nc3cccc(-c4ccc5c(c4)OCCO5)n3n2)cc1OCCN1CCCC1 [XX-134] | 6.00 to 7.00
7 | CC(C(=O)Nc1ccc(Nc2nc3cccc(-c4ccc5c(c4)OCCO5)n3n2)cc1)N1CCCC1 (stereo not drawn) [XX-135] | 6.00 to 7.00
8 | CN(C)CCCc1ccc(Nc2nc3cccc(-c4ccc5c(c4)OCCO5)n3n2)cc1 [XX-137] | 6.00 to 7.00
9 | C[C@@H](N)COc1ccc(Nc2nc3cccc(-c4ccc5c(c4)OCCO5)n3n2)cc1 [XX-138] | 6.00 to 7.00
10 | CC(CNc1cccc(Nc2nc3cccc(-c4ccc5c(c4)OCCO5)n3n2)c1)N1CCCC1 (stereo not drawn) [XX-140] | 6.00 to 7.00
11 | C[C@@H](CN)Oc1ccc(Nc2nc3cccc(-c4ccc5c(c4)OCCO5)n3n2)cc1 [XX-141] | 6.00 to 7.00
12 | C[C@H](CN)Oc1ccc(Nc2nc3cccc(-c4ccc5c(c4)OCCO5)n3n2)cc1 [XX-142] | 6.00 to 7.00
13 | C[C@H](N)COc1ccc(Nc2nc3cccc(-c4ccc5c(c4)OCCO5)n3n2)cc1 [XX-143, [4-((S)-2-Amino-propoxy)-phenyl]-[5-(2,3-dihydro-benzo[1,4]dioxin-6-yl)-[1,2,4]triazolo[1,5-a]pyridin-2-yl]-amine] | 6.00 to 7.00

The remaining lines, values ahead:

Row | pIC50 | SMILES
14 | 6.00 to 7.00 | CN1CCN(C(=O)c2cccc(Nc3nc4cccc(-c5ccc6c(c5)OCCO6)n4n3)c2)CC1 [XX-114]
15 | 6.00 to 7.00 | CN(C)CCCc1cccc(Nc2nc3cccc(-c4ccc5c(c4)OCCO5)n3n2)c1 [XX-115, [5-(2,3-Dihydro-benzo[1,4]dioxin-6-yl)-[1,2,4]triazolo[1,5-a]pyridin-2-yl]-[3-(3-dimethylamino-propyl)-phenyl]-amine]
16 | 6.00 to 7.00 | c1cc(NCCN2CCCC2)cc(Nc2nc3cccc(-c4ccc5c(c4)OCCO5)n3n2)c1 [XX-116]
17 | 6.00 to 7.00 | c1cc(NCCCN2CCCC2)cc(Nc2nc3cccc(-c4ccc5c(c4)OCCO5)n3n2)c1 [XX-117]
18 | ≥ 7.00 | CC(CN)Oc1ccc(Nc2nc3cccc(-c4ccc5c(c4)OCCO5)n3n2)cc1 (stereo not drawn) [XX-118]
19 | 6.00 to 7.00 | CCN(CC)CC(=O)Nc1ccc(Nc2nc3cccc(-c4ccc5c(c4)OCCO5)n3n2)cc1 [XX-119]
20 | 6.00 to 7.00 | CCN(CC)CC(=O)Nc1cccc(Nc2nc3cccc(-c4ccc5c(c4)OCCO5)n3n2)c1 [XX-120]
21 | 6.00 to 7.00 | O=C(CN1CCCCC1)Nc1cccc(Nc2nc3cccc(-c4ccc5c(c4)OCCO5)n3n2)c1 [XX-121]
22 | 6.00 to 7.00 | CCN(CC)CCC(=O)Nc1ccc(Nc2nc3cccc(-c4ccc5c(c4)OCCO5)n3n2)cc1 [XX-122]
23 | 6.00 to 7.00 | O=C(CCN1CCCCC1)Nc1ccc(Nc2nc3cccc(-c4ccc5c(c4)OCCO5)n3n2)cc1 [XX-123]
24 | ≥ 7.00 | CCN(CC)CCNc1ccc(Nc2nc3cccc(-c4ccc5c(c4)OCCO5)n3n2)cc1 [XX-127]
25 | ≥ 7.00 | CCN(CC)CCCNc1cccc(Nc2nc3cccc(-c4ccc5c(c4)OCCO5)n3n2)c1 [XX-130]
26 | ≥ 7.00 | c1cc(NCCCN2CCCCC2)cc(Nc2nc3cccc(-c4ccc5c(c4)OCCO5)n3n2)c1 [XX-131]
27 | ≥ 7.00 | COc1ccc(Nc2nc3cccc(-c4ccc5c(c4)OCCO5)n3n2)cc1OCCN1CCCC1 [XX-132]
28 | ≥ 7.00 | Fc1cc(Nc2nc3cccc(-c4ccc5c(c4)OCCO5)n3n2)ccc1OCCN1CCCC1 [XX-133]
29 | ≥ 7.00 | CC(C(=O)Nc1cccc(Nc2nc3cccc(-c4ccc5c(c4)OCCO5)n3n2)c1)N1CCCC1 (stereo not drawn) [XX-136]
30 | ≥ 7.00 | CC(CNc1ccc(Nc2nc3cccc(-c4ccc5c(c4)OCCO5)n3n2)cc1)N1CCCC1 (stereo not drawn) [XX-139]
